This note sets out measurements from US20260117184A1, “SYSTEM AND METHOD TO DIRECT THE DIFFERENTIATION OF PLURIPOTENT STEM CELL-DERIVED ODONTOBLASTS” (UNIVERSITY OF WASHINGTON, priority 2022, published 2026).

The subject of this assay is hiPSC derived odontoblast cells (iOB). In words: qPCR of odontoblast markers (Example 2). Format: cell-based, human. Particulars: iOB bFGF (100 ng/mL, 14 days) compared to conventional odontoblast differentiation method (OB). How it is done:
This project applies the DPSC derived to odontoblast protocol previously described by the lab (30), modified for hiPSC and to reflect the full signaling pathway activities as detected by the sci-RNA-seq analysis (FIG. 11A; FIGS. 15B and 15C). […] Odontogenic medium was supplemented with 50 ng/mL BMP4 (Stemcell Technologies 78211) for 7 days followed by 25 ng/mL BMP4 (Stemcell Technologies 78211) and 400 nM SAG (Stemcell Technologies 73412) for 7 days (iOB); 100 ng/mL C6 (1,2) for 14 days (iOB C6); 100 ng/mL C6 for 7 days followed by 100 ng/mL mb7 (31,32) for 7 days (iOB C6 to mb7); or 100 ng/mL recombinant basic FGF (Gibco 13256-029) for 14 days (iOB bFGF). […]
To analyze gene expression, cells were dissociated and lysed with Trizol (Life Technology) with cell pellets stored at −80° C. RNA purification is performed via TURBO DNA-Free™ Kit (Invitrogen) or Aurum™ Total RNA Mini Kit (Bio-Rad), purity and concentration quantification via Nanodrop ND-1000 (Thermo Fisher Scientific). cDNA synthesis via iScript™ cDNA Synthesis Kit (Bio-Rad) or Applied Biosystems™ High-Capacity cDNA Reverse Transcription Kit (Thermo Fisher Scientific), and qPCR performed using oligonucleotide primers for neural crest and odontoblast markers (Table 3), SYBR Green reporter (Applied Biosystems) and 7300 Real-Time PCR System (Applied Biosystems). […]
(In general: Quantitative PCR measures a nucleic acid by following its amplification.)

In the case of “bFGF: recombinant basic FGF (Gibco 13256-029)”, the “DSPP and DMP1 expression” value was “increased DSPP and DMP1 expression”.
